Experimental data: ChEMBL document CHEMBL1146416, “A new glycoside antimicrobial agent from Persoonia linearis x pinifolia” (J Nat Prod, 1997)
The source made the active and inactive calls. The rule behind the calls is not given here.

Key:
Assay type in all cases: functional, organism-based
Bacillus subtilis = assay: Antimicrobial activity against Bacillus subtilis RSC1 at <12.5 ug/disk after 24 hrs
Phytophthora cinnamomi = assay: Antimicrobial activity against Phytophthora cinnamomi RSC290 at 6.25 ug/disk after 18 to 24 hrs
Escherichia coli = assay: Antimicrobial activity against Escherichia coli RSC2 at 6.25 ug/disk after 18 to 24 hrs

SMILES: C=C(C(=O)OC[C@H]1O[C@@H](Oc2ccc(O)cc2)[C@H](O)[C@@H](O)[C@@H]1O)[C@@H](O)CO
- Activity (Bacillus subtilis): inactive
- Activity (Phytophthora cinnamomi): Active
- Activity (Escherichia coli): Active
